Patent publication US20150315188A1, “COMPOUNDS AND METHODS FOR TREATMENT OF HYPERTENSION” (MEDIVATION TECHNOLOGIES, INC., priority 2012, published 2015)

Assays:
[1] = molecular target: T1, Human adrenergic α2A receptor (Homo sapiens, UniProt P08913); test: Radioligand binding, adrenergic α2A (Protocol Group B); set-up: purchased Milipore (Millipore); settings: Protocol Group B; for inhibition at 0.1 µM: read-out: Percentage inhibition of ligand binding, Adrenergic α2A (0.1 μM); for inhibition at 0.3 µM: read-out: Percentage inhibition of ligand binding, Adrenergic α2A (0.3 μM); for Ki: estimated Ki
T1 sequence (P08913 1-465): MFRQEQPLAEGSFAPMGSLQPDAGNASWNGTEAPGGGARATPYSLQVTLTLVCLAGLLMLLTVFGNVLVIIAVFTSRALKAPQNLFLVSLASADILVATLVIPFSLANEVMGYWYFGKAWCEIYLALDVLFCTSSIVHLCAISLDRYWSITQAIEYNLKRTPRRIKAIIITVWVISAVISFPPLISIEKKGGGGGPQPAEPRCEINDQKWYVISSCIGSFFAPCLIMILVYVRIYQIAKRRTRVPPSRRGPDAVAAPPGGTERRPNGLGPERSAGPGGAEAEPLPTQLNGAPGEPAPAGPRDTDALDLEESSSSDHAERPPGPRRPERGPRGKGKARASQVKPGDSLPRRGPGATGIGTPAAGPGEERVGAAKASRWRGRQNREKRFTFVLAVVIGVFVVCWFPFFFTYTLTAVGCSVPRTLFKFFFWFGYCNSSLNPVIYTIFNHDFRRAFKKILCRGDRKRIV
Method in brief: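 Membranes from recombinant cells expressing the receptor, in 50 mM Tris-HCl pH 7.4 with 5 mM MgCl2, 1 mM CaCl2, 0.2% BSA; compounds incubated with 2 nM [^3H]MK-912 for 60 min at 25° C. Nonspecific binding defined by 10 μM rauwolscine; filtration, counting; percent inhibition of specific binding, or estimated Ki.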

[2] = molecular target: T2, Human adrenergic α2B receptor (Homo sapiens, UniProt P18089); test: β-Arrestin GPCR functional assay, adrenergic α2B (Protocol B); format: cell-based; settings: β-arrestin, antagonist vs nor-epinephrine EC80; read-out: IC50 Adrenergic α2B
T2 sequence (P18089 1-450): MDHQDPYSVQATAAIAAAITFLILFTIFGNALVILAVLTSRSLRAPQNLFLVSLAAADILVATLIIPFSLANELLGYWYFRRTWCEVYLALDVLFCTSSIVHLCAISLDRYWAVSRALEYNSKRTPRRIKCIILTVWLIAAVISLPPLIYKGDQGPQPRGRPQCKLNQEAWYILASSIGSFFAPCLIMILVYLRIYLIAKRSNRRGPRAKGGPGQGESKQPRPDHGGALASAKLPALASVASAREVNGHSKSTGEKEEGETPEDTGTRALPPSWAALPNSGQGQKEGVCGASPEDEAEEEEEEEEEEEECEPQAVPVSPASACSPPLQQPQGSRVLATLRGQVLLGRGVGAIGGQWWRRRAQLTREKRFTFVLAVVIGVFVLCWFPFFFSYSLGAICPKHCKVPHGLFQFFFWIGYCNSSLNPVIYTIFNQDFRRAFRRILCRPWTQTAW
Protocol: To evaluate the activity of compounds in β-Arrestin GPCR functional assays, recombinant CHO cell line (DiscoveRX), over expressed with human adrenergic α2B receptor were used. The experiment was done with kit of DiscoveRX as per recommended protocol of the supplier. Cells were harvested from culture flask using cell dissociation solution (CDS) and plated at a density of 12,000 cells/well in CP reagent (supplied with the kit) in a half area 96-well white polystyrene plate. After 24 h incubation at 37° C., compounds at various concentrations in 1% (final) DMSO were charged to the cells for 30 min at 37° C. Active nor-epinephrine (-NE) at its EC80 concentrations (50 nM) were then added to the cells and incubated for another 90 min at 37° C. Detection mix was prepared by mixing of Path Hunter cell assay buffer, Emerald II solution and Galactone star solution in a ratio of 19:5:1 and incubated with the cells for 60 min at RT in the dark. The reading was taken in Envision at luminescence mode. Biochemical assay results are presented as the percent Inhibition in Table B2a, or IC50 values in Table B2b.

[3] = molecular target: T2, Human adrenergic α2B receptor; test: Radioligand binding, adrenergic α2B (Protocol Group B); set-up: purchased Milipore (Millipore); settings: Protocol Group B; for inhibition at 0.01 µM: read-out: Percentage inhibition of ligand binding, Adrenergic α2B (10 nM); for inhibition at 0.03 µM: read-out: Percentage inhibition of ligand binding, Adrenergic α2B (30 nM); for Ki: estimated Ki, read-out: Ki α2B; for inhibition at 0.1 µM: read-out: Percentage inhibition of ligand binding, Adrenergic α2B (0.1 μM)
Method in brief: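 Recombinant human α2B receptor membranes incubated with compounds in 50 mM Tris-HCl pH 7.4, 5 mM MgCl2, 1 mM CaCl2, 0.2% BSA, 1% DMSO vehicle. Non-specific binding defined with 10 μM rauwolscine. Values are percent inhibition of specific binding or estimated Ki.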

[4] = molecular target: T3, Human adrenergic α1B receptor (Homo sapiens, UniProt P35368); test: Radioligand binding, adrenergic α1B (Protocol Group B); set-up: purchased Milipore (Millipore); settings: Protocol Group B; for inhibition at 0.1 µM: read-out: Percentage inhibition of ligand binding, Adrenergic α1B (0.1 μM); for inhibition at 0.3 µM: read-out: Percentage inhibition of ligand binding, Adrenergic α1B (0.3 μM); for Ki: estimated Ki
T3 sequence (P35368 1-520): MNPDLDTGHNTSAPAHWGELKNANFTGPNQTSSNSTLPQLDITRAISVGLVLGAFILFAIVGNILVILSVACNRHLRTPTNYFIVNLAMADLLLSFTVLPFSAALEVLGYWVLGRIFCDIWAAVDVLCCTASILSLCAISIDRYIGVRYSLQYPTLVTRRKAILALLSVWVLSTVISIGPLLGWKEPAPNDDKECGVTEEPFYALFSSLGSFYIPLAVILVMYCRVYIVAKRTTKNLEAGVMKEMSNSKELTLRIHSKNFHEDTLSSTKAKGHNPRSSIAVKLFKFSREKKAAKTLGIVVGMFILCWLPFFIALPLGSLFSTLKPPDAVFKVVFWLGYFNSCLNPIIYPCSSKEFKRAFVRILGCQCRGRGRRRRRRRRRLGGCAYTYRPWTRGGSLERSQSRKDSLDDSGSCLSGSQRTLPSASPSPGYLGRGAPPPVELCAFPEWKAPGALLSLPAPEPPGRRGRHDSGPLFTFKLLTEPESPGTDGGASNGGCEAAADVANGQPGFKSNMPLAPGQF
Method in brief: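 Recombinant human α1B membranes incubated with test compound and 0.3 nM [3H]prazosin, 60 min at 25 °C, in 50 mM Tris-HCl pH 7.4, 10 mM MgCl2, 1 mM EDTA; nonspecific binding with 10 μM prazosin. Filter-bound radioactivity counted; values are % inhibition of specific binding or estimated Ki.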

Row | Structure (SMILES) | inhibition at 0.1 µM ([1]; 0.1 μM compound) | inhibition at 0.3 µM ([1]; 0.3 μM compound) | IC50 [2] | inhibition at 0.01 µM ([3]; 10 nM compound) | inhibition at 0.03 µM ([3]; 30 nM compound) | Ki [3] | inhibition at 0.1 µM ([4]; 0.1 μM compound) | inhibition at 0.3 µM ([4]; 0.3 μM compound) | Ki [1] | inhibition at 0.1 µM ([3]; 0.1 μM compound) | Ki [4] | Percentage inhibition of ligand binding, Adrenergic α2A (0.1 μM) ([1]; 0.1 μM compound, 0.1 µM) | Percentage inhibition of ligand binding, Adrenergic α2A (0.3 μM) ([1]; 0.3 μM compound, 0.3 µM) | Percentage inhibition of ligand binding, Adrenergic α2B (10 nM) ([3]; 10 nM compound, 0.01 µM) | Percentage inhibition of ligand binding, Adrenergic α2B (30 nM) ([3]; 30 nM compound) | Percentage inhibition of ligand binding, Adrenergic α2B (0.1 μM) ([3]; 0.1 μM compound) | Percentage inhibition of ligand binding, Adrenergic α1B (0.1 μM) ([4]; 0.1 μM compound, 0.1 µM) | Percentage inhibition of ligand binding, Adrenergic α1B (0.3 μM) ([4]; 0.3 μM compound, 0.3 µM)
1 | Cc1ccc2c(c1)c1c(n2CC(C)(O)c2cnc3ccccc3c2)CCN(C)C1 (single isomer, unassigned) [32a] | 10% | 37% | 0.396 µM | 28% | 54% | 0.0079 µM | -1% | 26% |  |  |  |  |  |  |  |  |  | 
2 | Cc1ccc2c(c1)c1c(n2CC(O)c2ccncc2)CNC2CCCC12 (single isomer, unassigned) [34c] | 4% | 11% | 0.251 µM | 52% | 80% | 0.0046 µM | 3% | 28% | 5.16 µM | 90% | 0.379 µM |  |  |  |  |  |  | 
3 | Cc1ccc2c(c1)c1c(n2CC(OC2CCCC2)c2ccncc2)CCN(C)C1 (single isomer, unassigned) [35b] |  |  | 0.212 µM |  |  | 0.00349 µM |  |  | 0.241 µM |  | 0.456 µM | 25% | 45% | 65% | 86% | 96% | 5% | 17%
4 | Cc1ccc2c(c1)c1c(n2CC(C)(O)c2cnccc2F)CCN(C)C1 (stereo not shown) [compound 40, 1-(2,8-dimethyl-3,4-dihydro-1H-pyrido[4,3-b]indol-5(2H)-yl)-2-(4-fluoropyridin-3-yl)propan-2-ol] | 5% | 19% |  | 19% | 44% |  | -6% | 3% |  | 74% |  |  |  |  |  |  |  | 
5 | Cc1ccc2c(c1)c1c(n2CC(C)(O)c2ccc(N)nc2)CCN(C)C1 (stereo not shown) [compound 47, 2-(6-aminopyridin-3-yl)-1-(2,8-dimethyl-3,4-dihydro-1H-pyrido[4,3-b]indol-5(2H)-yl)propan-2-ol] | 33% | 50% |  | 50% | 65% |  | 3% | 32% |  | 83% |  |  |  |  |  |  |  | 
6 | Cc1ccc2c(c1)c1c(n2CC(OC(C)C)c2ccncc2)CCN(C)C1 (stereo not shown) [compound 49, 5-(2-isopropoxy-2-(pyridin-4-yl)ethyl)-2,8-dimethyl-2,3,4,5-tetrahydro-1H-pyrido[4,3-b]indole] | 28% | 53% |  | 50% | 74% |  | 9% | 40% |  | 91% |  |  |  |  |  |  |  | 
7 | Cc1ccc2c(c1)c1c(n2CC(O)c2ccc(C(=O)N(C)C)nc2)CCN(C)C1 (stereo not shown) [compound 54, 5-(2-(2,8-dimethyl-3,4-dihydro-1H-pyrido[4,3-b]indol-5(2H)-yl)-1-hydroxyethyl)-N,N-dimethylpicolinamide] | -8% | -3% |  | 15% | 43% |  | -5% | 8% |  | 66% |  |  |  |  |  |  |  | 
8 | Cc1ccc2c(c1)c1c(n2CC(O)c2ccc(C(=O)NC3CC3)nc2)CCN(C)C1 (stereo not shown) [compound 55, N-cyclopropyl-5-(2-(2,8-dimethyl-3,4-dihydro-1H-pyrido[4,3-b]indol-5(2H)-yl)-1-hydroxyethyl)picolinamide] | -4% | 3% |  | 6% | 24% |  | 19% | 44% |  | 50% |  |  |  |  |  |  |  | 
9 | Cc1ccc2c(c1)c1c(n2CC(C)(O)c2ccc(OCC3CC3)nc2)CCN(C)C1 (stereo not shown) [compound 56, 2-(6-(cyclopropylmethoxy)pyridin-3-yl)-1-(2,8-dimethyl-3,4-dihydro-1H-pyrido[4,3-b]indol-5(2H)-yl)propan-2-ol] | 1% | 9% |  | 17% | 48% |  | 12% | 38% |  | 74% |  |  |  |  |  |  |  | 
10 | Cc1ccc2c(c1)c1c(n2CC(C)(O)c2cccnc2)CCN(CC(F)F)C1 (stereo not shown) [compound 58, 1-(2-(2,2-difluoroethyl)-8-methyl-3,4-dihydro-1H-pyrido[4,3-b]indol-5(2H)-yl)-2-(pyridin-3-yl)propan-2-ol] | -6% | -1% |  | -10% | -4% |  | -6% | -4% |  | -2% |  |  |  |  |  |  |  | 
11 | Cc1ccc2c(c1)c1c(n2CC(O)c2ccc(C(=O)N3CCCC3)nc2)CCN(C)C1 (stereo not shown) [compound 96, [5-[2-(2,8-dimethyl-3,4-dihydro-1H-pyrido[4,3-b]indol-5-yl)-1-hydroxy-ethyl]-2-pyridyl]-pyrrolidin-1-yl-methanone] | -7% | -9% |  | 1% | 21% |  | -1% | 9% |  |  |  |  |  |  |  |  |  | 
